# US20240101572A1, “DIHYDROOXADIAZINONE COMPOUND AND PHARMACEUTICAL USE THEREOF” (Japan Tobacco Inc., priority 2022, published 2024)
# Read-outs that look alike come from different tables or passages of the source.
# What was measured:
# [1] = biological target: full-length human PLD1 (Homo sapiens (Human), UniProt Q13393); experiment: Evaluation of human PLD1 enzyme inhibitory activity (Amplex Red / choline oxidase fluorescence); assay type: biochemical
# How it was run: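 Fluorescence read-out couples choline to Amplex Red via choline oxidase and peroxidase after a 60 min room-temperature reaction. Enzyme: FLAG-tagged full-length human PLD1 from Expi293F cells, anti-FLAG purified; substrate diheptanoyl phosphatidylcholine; HEPES pH 7.5 assay buffer with 0.01% NP-40, 0.1% BSA, 5% DMSO final.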
# [2] = biological target: full-length human PLD2 (Homo sapiens (Human), UniProt O14939); experiment: Evaluation of human PLD2 enzyme inhibitory activity (Amplex Red / choline oxidase fluorescence); assay type: biochemical
# How it was run: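 Released choline was read by Amplex Red fluorescence coupled to choline oxidase and HRP after a 60 min room-temperature reaction. Substrate was diheptanoyl phosphatidylcholine, added as a 6 mmol/L solution, and enzyme was FLAG-tagged full-length human PLD2 from Expi293F, added as a 6 nmol/L solution. Buffer was 50 mM HEPES pH 7.5 with 5% final DMSO.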
# [3] = full-length human PLD1 enzyme, read-out: PLD1 IC50
# [4] = full-length human PLD2 enzyme, read-out: PLD2 IC50
# Sequence of full-length human PLD1 (Q13393 other isoform, or with tags, fused parts or gaps): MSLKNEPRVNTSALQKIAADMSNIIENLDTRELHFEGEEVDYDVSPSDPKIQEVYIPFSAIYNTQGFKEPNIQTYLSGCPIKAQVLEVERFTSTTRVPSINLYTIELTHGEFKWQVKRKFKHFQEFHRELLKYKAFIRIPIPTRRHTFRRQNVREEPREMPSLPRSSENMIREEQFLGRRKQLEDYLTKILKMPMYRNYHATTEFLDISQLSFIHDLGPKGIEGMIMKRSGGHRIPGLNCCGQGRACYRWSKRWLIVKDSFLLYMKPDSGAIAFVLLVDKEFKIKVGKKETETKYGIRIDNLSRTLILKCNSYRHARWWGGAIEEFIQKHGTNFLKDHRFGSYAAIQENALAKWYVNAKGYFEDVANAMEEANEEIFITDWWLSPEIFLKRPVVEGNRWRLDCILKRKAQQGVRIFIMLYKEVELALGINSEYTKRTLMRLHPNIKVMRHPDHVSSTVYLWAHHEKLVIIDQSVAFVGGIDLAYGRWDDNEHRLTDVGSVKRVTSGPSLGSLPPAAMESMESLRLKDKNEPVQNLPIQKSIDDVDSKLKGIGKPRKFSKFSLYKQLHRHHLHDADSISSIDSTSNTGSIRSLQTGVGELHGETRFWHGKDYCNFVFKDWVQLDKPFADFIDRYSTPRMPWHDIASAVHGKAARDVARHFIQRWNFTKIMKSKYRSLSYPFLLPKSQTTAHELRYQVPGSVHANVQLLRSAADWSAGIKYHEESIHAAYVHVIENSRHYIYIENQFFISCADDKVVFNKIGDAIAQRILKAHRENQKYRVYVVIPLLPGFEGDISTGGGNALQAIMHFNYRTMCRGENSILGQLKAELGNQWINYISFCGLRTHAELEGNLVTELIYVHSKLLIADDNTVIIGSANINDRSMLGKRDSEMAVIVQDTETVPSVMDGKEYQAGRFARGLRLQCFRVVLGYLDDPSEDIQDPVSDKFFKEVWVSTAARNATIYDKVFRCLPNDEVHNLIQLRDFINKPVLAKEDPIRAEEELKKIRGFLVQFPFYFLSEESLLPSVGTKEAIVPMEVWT
# Sequence of full-length human PLD2 (O14939 whole entry): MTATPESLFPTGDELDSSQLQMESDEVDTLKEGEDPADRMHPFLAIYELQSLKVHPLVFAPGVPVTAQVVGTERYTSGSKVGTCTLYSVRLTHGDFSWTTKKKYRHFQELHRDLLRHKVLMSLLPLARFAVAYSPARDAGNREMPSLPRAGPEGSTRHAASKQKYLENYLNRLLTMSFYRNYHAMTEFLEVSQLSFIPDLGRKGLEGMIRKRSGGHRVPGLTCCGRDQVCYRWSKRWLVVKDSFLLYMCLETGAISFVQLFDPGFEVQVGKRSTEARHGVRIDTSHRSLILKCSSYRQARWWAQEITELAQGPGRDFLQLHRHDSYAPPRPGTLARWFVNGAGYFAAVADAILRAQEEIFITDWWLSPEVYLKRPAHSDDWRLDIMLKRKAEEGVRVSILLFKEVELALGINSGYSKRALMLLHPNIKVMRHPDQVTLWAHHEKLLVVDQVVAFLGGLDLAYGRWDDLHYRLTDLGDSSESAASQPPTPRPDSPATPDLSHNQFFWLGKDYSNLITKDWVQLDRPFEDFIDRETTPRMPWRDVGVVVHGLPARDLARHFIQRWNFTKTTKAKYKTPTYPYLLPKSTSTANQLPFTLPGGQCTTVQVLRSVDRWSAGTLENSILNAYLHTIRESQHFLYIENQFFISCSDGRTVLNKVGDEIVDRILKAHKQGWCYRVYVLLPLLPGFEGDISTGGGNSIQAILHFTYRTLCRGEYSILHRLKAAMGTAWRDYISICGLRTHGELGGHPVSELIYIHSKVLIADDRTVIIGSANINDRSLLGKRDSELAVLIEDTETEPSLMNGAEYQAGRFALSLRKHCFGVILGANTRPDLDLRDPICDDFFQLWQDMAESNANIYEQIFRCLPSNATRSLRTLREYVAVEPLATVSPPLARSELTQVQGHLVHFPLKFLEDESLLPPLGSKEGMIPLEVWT
SMILES,"IC50 [1, 3] [nM]","IC50 [2, 4] [nM]",other results
CNC(=O)C(=O)N[C@@H](C)CN1CCC2(CC1)OC(=O)NN=C2c1ccc(C#N)cc1Cl [Example 168],56,35,–
Cc1cc(C(=O)N[C@@H](C)C[C@H]2CC[C@]3(CC2)OC(=O)NN=C3c2cnc(N3CCC(F)(F)C3)cc2Cl)[nH]n1 [Example 224],13,< 10,–
CNC(=O)C(=O)N[C@@H](C)C[C@H]1CC[C@]2(CC1)OC(=O)NN=C2c1cc(OCC(F)(F)F)ccc1Br [Example 296],13,< 10,–
CSc1ccc(C2=NNC(=O)OC23CCN(C[C@H](C)NC(=O)c2cc(C)n[nH]2)CC3)c(Cl)c1 [Example 127],25,< 10,–
COc1cc(C)c(C2=NNC(=O)O[C@]23CC[C@@H](C[C@H](C)NC(=O)N2CCn4ncnc4C2)CC3)cn1 [Example 257],262,215,–
C[C@@H](C[C@H]1CC[C@]2(CC1)OC(=O)NN=C2c1ccc(C#N)cc1Br)NC(=O)N1CCn2nccc2C1 [Example 270],17,< 10,–
CNC(=O)C(=O)N[C@@H](C)C[C@H]1CC[C@]2(CC1)OC(=O)NN=C2c1cnccc1Br [Example 151],18,< 10,–
C[C@@H](CN1CCC2(CC1)OC(=O)NN=C2c1ccc(C#N)cc1Br)NC(=O)c1cc(Cl)no1 [Example 2-061],14,< 10,–
CC(C)C(=O)N[C@@H](C)C[C@H]1CC[C@]2(CC1)OC(=O)NN=C2c1ccc(F)cc1Br [Example 20],1650,3770,–
[2H]C([2H])([2H])NC(=O)C(=O)N[C@@H](C)CN1CCC2(CC1)OC(=O)NN=C2c1cc(C#N)ccc1Br [Example 2-001],41,< 10,–
Cc1cc(C(=O)N[C@@H](C)C[C@H]2CC[C@]3(CC2)OC(=O)NN=C3c2ccccc2OC(F)(F)F)[nH]n1 [Example 110],83,99,–
C[C@@H](CN1CCC2(CC1)OC(=O)NN=C2c1ccc(S(C)(=O)=O)cc1Cl)NC(=O)c1cc2cc(F)ccc2o1 [Example 116],43,37,–
C[C@@H](CN1CCC2(CC1)OC(=O)NN=C2c1cc(C#N)ccc1Br)NC(=O)C1CCCO1 (mixture of isomers) [Example 2-048],644,1010,–
C[C@@H](C[C@H]1CC[C@]2(CC1)OC(=O)NN=C2c1ccc(OCC(C)(C)O)cc1Br)NC(=O)c1cc2ccccc2o1 [Example 132],14,< 10,–
CNC(=O)C(=O)N[C@@H](C)C[C@H]1CC[C@]2(CC1)OC(=O)NN=C2c1cc(OC(F)F)ccc1C [Example 194],< 10,< 10,–
COc1cc(C)c(C2=NNC(=O)O[C@]23CC[C@@H](C[C@H](C)NC(=O)c2cc(C)n[nH]2)CC3)cn1 [Example 160],26,17,–
C[C@@H](C[C@H]1CC[C@]2(CC1)OC(=O)NN=C2c1cc(OC(F)(F)F)ccc1Br)NC(=O)C(=O)NC1CC1 [Example 295],< 10,< 10,–
CNC(=O)C(=O)N[C@@H](C)C[C@H]1CC[C@]2(CC1)OC(=O)NN=C2c1cnc(N2CC(C(F)F)C2)cc1C [Example 227],19,< 10,–
CNC(=O)C(=O)N[C@@H](C)C[C@H]1CC[C@]2(CC1)OC(=O)NN=C2c1ccc(C#N)cc1C [Example 152],23,13,–
CNC(=O)N[C@@H](C)C[C@H]1CC[C@]2(CC1)OC(=O)NN=C2c1ccc(F)cc1I [Example 183],42,107,–
Cc1cc(C(=O)N[C@@H](C)CN2CCC3(CC2)OC(=O)NN=C3c2ccc(C#N)cc2C(F)(F)F)[nH]n1 [Example 326],54,38,–
CNC(=O)C(=O)N[C@@H](C)CN1CCC2(CC1)OC(=O)NN=C2c1cccc(C(F)(F)F)c1Br [Example 2-051],25,< 10,–
C[C@@H](C[C@]1(C#N)CC[C@@]2(CC1)OC(=O)NN=C2c1cc(C#N)ccc1Br)NC(=O)c1cc(Cl)no1 [Example 2-068],< 10,< 10,–
C[C@@H](C[C@H]1CC[C@]2(CC1)OC(=O)NN=C2c1ccc(F)cc1Cl)NC(=O)c1cc2ccccc2o1 [Example 46],12,< 10,–
CNC(=O)C(=O)N[C@@H](C)CN1CCC2(CC1)OC(=O)NN=C2c1ncccc1Br [Example 2-028],45,32,–

SMILES,"IC50 [1, 3] [nM]","IC50 [2, 4] [nM]",other results
CNC(=O)C(=O)N[C@@H](C)C[C@H]1CC[C@]2(CC1)OC(=O)NN=C2c1ccc(-c2ccccc2)cc1-c1ccccc1 [Example 73],23,15,–
Cc1cc(C(=O)N[C@@H](C)C[C@H]2CC[C@]3(CC2)OC(=O)NN=C3c2cnc(N3CC(F)(F)C3)cc2C)[nH]n1 [Example 273],19,< 10,–
C[C@@H](C[C@H]1CC[C@]2(CC1)OC(=O)NN=C2c1ccc(F)cc1Br)NC(=O)CCS(C)(=O)=O [Example 43],221,184,–
[2H]C([2H])([2H])NC(=O)C(=O)N[C@@H](C)C[C@]1(C#N)CC[C@@]2(CC1)OC(=O)NN=C2c1ccccc1Br [Example 2-164],–,–,"IC50 ([1]; column 1 of continuation tables 2-12 to 2-14, read-out: human PLD1 enzyme inhibitory activity IC50): < 10 nM; IC50 ([2]; column 2 of continuation tables 2-12 to 2-14, read-out: human PLD2 enzyme inhibitory activity IC50): < 10 nM"
C[C@@H](CN1CCC2(CC1)OC(=O)NN=C2c1ccc(F)cc1)NC(=O)c1cc2cc(F)ccc2[nH]1 [Example 1],33,< 10,–
C[C@@H](CN1CCC2(CC1)OC(=O)NN=C2c1cc(C#N)ccc1Br)NC(=O)/C=C/C(F)(F)F [Example 2-003],38,12,–
Cc1cc(C(=O)N[C@@H](C)CN2CCC3(CC2)OC(=O)NN=C3c2cc(C#N)ccc2Br)[nH]n1 [Example 301],30,< 10,–
CNC(=O)/C=C/C(=O)N[C@@H](C)CN1CCC2(CC1)OC(=O)NN=C2c1cc(C#N)ccc1Br [Example 2-041],148,103,–
CNC(=O)C(=O)N[C@@H](C)C[C@]1(C#N)CC[C@@]2(CC1)OC(=O)NN=C2c1cc(OC)ncc1Br [Example 2-077],15,< 10,–
Cc1cc(F)ccc1C1=NNC(=O)O[C@]12CC[C@@H](C[C@H](C)NC(=O)N1CCc3ccccc3C1)CC2 [Example 155],14,< 10,–
CNC(=O)C(=O)N[C@@H](C)C[C@H]1CC[C@]2(CC1)OC(=O)NN=C2c1cccc(C#N)c1Br [Example 315],25,24,–
CNC(=O)/C=C\C(=O)N[C@@H](C)CN1CCC2(CC1)OC(=O)NN=C2c1cc(C#N)ccc1Br [Example 2-063],173,106,–
Cc1cc(Cl)c(C2=NNC(=O)O[C@]23CC[C@@H](C[C@H](C)NC(=O)c2cc(C)n[nH]2)CC3)cn1 [Example 231],24,12,–
C[C@@H](C[C@H]1CC[C@]2(CC1)OC(=O)NN=C2c1ccc(F)cc1Br)NC(=O)N1CCOC2(CC2)C1 [Example 283],43,48,–
CSc1ccccc1C1=NNC(=O)O[C@]12CC[C@@H](C[C@H](C)NC(=O)c1cc(Cl)no1)CC2 [Example 79],< 10,< 10,–
C[C@@H](C[C@H]1CC[C@]2(CC1)OC(=O)NN=C2c1cccc(OC(F)F)c1Br)NC(=O)c1cnn(C)c1 [Example 309],15,< 10,–
CNC(=O)C(=O)N[C@@H](C)C[C@H]1CC[C@]2(CC1)OC(=O)NN=C2c1cnc(N2CC3CCC(C2)O3)cc1Cl [Example 246],15,< 10,–
C[C@@H](C[C@H]1CC[C@]2(CC1)OC(=O)NN=C2c1ccc(F)cc1Br)NC(=O)C1CCC(=O)N1 (mixture of isomers) [Example 18],852,157,–
"C[C@@H](C[C@H]1CC[C@]2(CC1)OC(=O)NN=C2c1cc(C#N)ccc1Br)NC(=O)NC1CC1 [Example 222, 1-((S)-1-(cis-5-(2-bromo-5-cyanophenyl)-2-oxo-1-oxa-3,4-diazaspiro[5.5]undec-4-en-9-yl)propan-2-yl)-3-cyclopropylurea]",59,171,–
C[C@@H](CN1CCC2(CC1)OC(=O)NN=C2c1cc(C#N)ccc1Br)NC(=O)CCC(F)(F)F [Example 2-023],102,64,–
CNC(=O)C(=O)N[C@H](C)C[C@H]1CC[C@@]2(CC1)OC(=O)NN=C2c1cc(C#N)ccc1Br [Example 2-150],–,–,inhibition at 10 µM ([1]; read-out: human PLD1 % inhibition at 10 μM): 25%; inhibition at 10 µM ([1]; read-out: inhibition rate of PLD1 at 10 μM compound): 25%; inhibition at 10 µM ([2]; read-out: human PLD2 % inhibition at 10 μM): 30%; inhibition at 10 µM ([2]; read-out: inhibition rate of PLD2 at 10 μM compound): 30%
CNC(=O)C(=O)N[C@@H](C)C[C@H]1CC[C@]2(CC1)OC(=O)NN=C2c1cnc(C2CC2)cc1Cl [Example 265],13,< 10,–
C[C@@H](C[C@H]1CC[C@]2(CC1)OC(=O)NN=C2c1nccn1CC1CC1)NC(=O)c1cc2ccccc2o1 [Example 84],70,53,–
CNC(=O)C(=O)N[C@@H](C)C[C@H]1CC[C@]2(CC1)OC(=O)NN=C2c1ccc(C(F)(F)F)cc1C [Example 181],13,< 10,–
Cc1ncccc1C1=NNC(=O)O[C@]12CC[C@@H](C[C@H](C)NC(=O)c1cc3ccccc3o1)CC2 [Example 104],75,217,–
